Test system: Baumwollpflanzen
Experiment: Defoliation and desiccation of the leaves of cotton (Beispiel A)
Assay type: in vivo, Baumwolle
Details: greenhouse; cotton plants sprayed dripping wet at full unfolding of the 5th leaf; rated after 1 week against control plants; concentration not given
Excerpt: Entlaubung und Austrocknung der Blätter bei Baumwolle
Lösungsmittel: 30 Gewichtsteile Dimethylformamid Emulgator: 1 Gewichtsteil Polyoxyethylen-SorbitanMonolaurat
Zur Herstellung einer zweckmäßigen Wirkstoffzubereitung vermischt man 1 Gewichtsteil Wirkstoff mit den angegebenen Mengen Lösungsmittel und Emulgator und füllt mit Wasser auf die gewünschte Konzentration auf.
Baumwollpflanzen werden im Gewächshaus bis zur vollen Entfaltung des 5. Folgeblattes angezogen. In diesem Stadium werden die Pflanzen tropfnaß mit den Wirkstoffzubereitungen besprüht. Nach 1 Woche werden der Blattfall und das Austrocknen der Blätter im Vergleich zu den Kontrollpflanzen bonitiert. Es bedeuten: • 0 kein Austrocknen der Blätter, kein Blattfall • + leichtes Austrocknen der Blätter, geringer Blattfall • ++ starkes Austrocknen der Blätter, starker Blattfall • sehr starkes Austrocknen der Blätter, sehr starker Blattfall

SMILES: CC(=O)OCc1cc(Oc2ccc(C(F)(F)F)cc2Cl)ccc1[N+](=O)[O-] [Beispiel 1, Essigsäure-(2-nitro-5-(2-chlor-4-trifluormethyl-phenoxy)-benzyl)-ester]
- Blattfall und Austrocknen der Blätter: starke Wirksamkeit

From patent EP0077961A2, “Substituted 2-nitro-5-(4-trifluoromethyl-phenoxy) toluols, process for their preparation and their use as herbicides and plant growth regulators” (BAYER AG, priority 1981, dated 1983)
